What was measured:
[1] = test system: C. tropicalis 8760; assay: Broth microdilution MIC; format: cell-based; details: C. tropicalis 8760
[2] = test system: Pseudomonas aeruginosa NCTC 13437; assay: Broth microdilution MIC; format: cell-based
[3] = test system: G. vaginalis KC1; assay: Anaerobic broth microdilution MIC (BHI, 5% horse serum); format: cell-based, Gardnerella vaginalis
[4] = test system: Prevotella bivia NCTC 11156; assay: as above; format: cell-based
[5] = test system: Acinetobacter baumannii ATCC 17978; assay: Broth microdilution MIC; format: cell-based
[6] = test system: G. vaginalis NCTC 10287; assay: Anaerobic broth microdilution MIC (BHI, 5% horse serum); format: cell-based, Gardnerella vaginalis
[7] = test system: VS Enterococcus faecalis NCTC 775; assay: Broth microdilution MIC; format: cell-based
[8] = test system: VR Enterococcus faecalis NCTC 12201; assay: Broth microdilution MIC; format: cell-based; details: VR Enterococcus faecalis NCTC 12201
[9] = test system: C. krusei 3876; assay: Broth microdilution MIC; format: cell-based
[10] = test system: P. aeruginosa RP73; assay: Checkerboard synergy assay; format: cell-based, Pseudomonas aeruginosa
[11] = test system: C. albicans 3179; assay: Broth microdilution MIC; format: cell-based, Candida albicans; details: C. albicans 3179
[12] = test system: HEK293; assay: In vitro toxicity for cell line; format: cell-based, human; details: HEK293; average ± standard error from 3 independent repeats
Description: (§1) TABLE 2 Toxicity of bolaamphiphiles for two cell lines^a | column: Toxicity (EC50 [μg/ml]) of: / 12-bis-THA Cl2; Toxicity (EC50 [μg/ml]) of: / Dequalinium; Toxicity (EC50 [μg/ml]) of: / Quino-bola; Toxicity (EC50 [μg/ml]) of: / Penta-bola; Toxicity (EC50 [μg/ml]) of: / Hepta-bola; Toxicity (EC50 [μg/ml]) of: / Octa-bola; Toxicity (EC50 [μg/ml]) of: / Octa-C10; Toxicity (EC50 [μg/ml]) of: / Octa-C8; Toxicity (EC50 [μg/ml]) of: / Octa-C6

[13] = test system: HeLa; assay: In vitro toxicity for cell line; format: cell-based, human; details: average ± standard error from 3 independent repeats
Description: as §1

[14] = test system: C. parapsilosis; assay: Broth microdilution MIC; format: cell-based
[15] = test system: P. aeruginosa NCTC 13437; assay: Checkerboard synergy assay; format: cell-based, Pseudomonas aeruginosa
[16] = test system: VR Enterococcus faecium NCTC 12204; assay: Broth microdilution MIC; format: cell-based; details: VR Enterococcus faecium NCTC 12204
[17] = test system: Ac. pleuropneumoniae 2331; assay: Checkerboard synergy assay (BHI, 5% FBS, 0.01% NAD); format: cell-based, Actinobacillus pleuropneumoniae
[18] = test system: C. parapsilosis 3209; assay: Broth microdilution MIC; format: cell-based
[19] = test system: C. auris temp probe; assay: Broth microdilution MIC; format: cell-based, Candida auris; details: C. auris temp probe
[20] = test system: G. vaginalis KC3; assay: Anaerobic broth microdilution MIC (BHI, 5% horse serum); format: cell-based, Gardnerella vaginalis
[21] = test system: Ac. pleuropneumoniae 2356; assay: Checkerboard synergy assay (BHI, 5% FBS, 0.01% NAD); format: cell-based, Actinobacillus pleuropneumoniae
[22] = test system: Pseudomonas aeruginosa PAO1; assay: Broth microdilution MIC; format: cell-based
[23] = test system: Ac. pleuropneumoniae Shope; assay: Checkerboard synergy assay (BHI, 5% FBS, 0.01% NAD); format: cell-based, Actinobacillus pleuropneumoniae
[24] = test system: EMRSA-15; format: in vivo, Galleria mellonella
[25] = test system: Escherichia coli NCTC 12923; assay: Broth microdilution MIC; format: cell-based
[26] = test system: Ac. pleuropneumoniae 3370; assay: Checkerboard synergy assay (BHI, 5% FBS, 0.01% NAD); format: cell-based, Actinobacillus pleuropneumoniae
[27] = test system: EMR Staphylococcus aureus 16 NCTC 13277; assay: Broth microdilution MIC; format: cell-based; details: EMR Staphylococcus aureus 16 NCTC 13277
[28] = test system: P. aeruginosa PAO1; assay: Checkerboard synergy assay; format: cell-based, Pseudomonas aeruginosa
[29] = test system: Klebsiella pneumoniae M6; assay: Broth microdilution MIC; format: cell-based
[30] = test system: C. albicans 3281; assay: Broth microdilution MIC; format: cell-based, Candida albicans; details: C. albicans 3281
[31] = test system: Klebsiella pneumoniae NCTC 13368; assay: Broth microdilution MIC; format: cell-based
[32] = test system: C. glabrata 8018; assay: Broth microdilution MIC; format: cell-based; details: C. glabrata 8018
[33] = test system: EMR Staphylococcus aureus 15 NCTC 13616; assay: Broth microdilution MIC; format: cell-based; details: EMR Staphylococcus aureus 15 NCTC 13616
[34] = test system: Acinetobacter baumannii AYE; assay: Broth microdilution MIC; format: cell-based; details: Acinetobacter baumannii AYE
[35] = test system: G. vaginalis KC2; assay: Anaerobic broth microdilution MIC (BHI, 5% horse serum); format: cell-based, Gardnerella vaginalis
[36] = test system: A. baumannii ATCC 17978; assay: G. mellonella burn wound infection model; format: in vivo, Galleria mellonella; details: alone; for larvae rescued: 96 h
Description: In addition to the intrahemocoelic infection/therapy models described above, a recently described G. mellonella burn wound model was adopted ([37]). The burn was created using the flat head of a nail, which was heated in a blue Bunsen burner flame until red hot, cooled for 15 s, and superficially applied for 2 s to generate a 2-mm^2 burn. Larvae were then infected with a single colony of A. baumannii ATCC 17978 applied directly to the burn site, or sterile phosphate-buffered saline was applied as a control. Treatment was applied topically 1 h after infection in a volume of 5 μL. Survival was monitored over 96 h.

Question: Which MIC [1] does the source give for `Nc1c2c([n+](CCCCCCCCCC[n+]3c4c(c(N)c5ccccc53)CCCCCC4)c3ccccc13)CCCCCC2` [Octa-C10] here?
Answer: Its MIC is 0.25 µg/mL.

Question: And the MIC [2]?
Answer: Its MIC is >32 µg/mL.

Question: What about the MIC [3] of the same compound?
Answer: Its MIC is 0.5 to 1 µg/mL.

Question: What about the MIC [4] of the same compound?
Answer: The MIC was 0.125 µg/mL.

Question: What about the MIC [5] of the same compound?
Answer: Its MIC is 8 µg/mL.

Question: What about the MIC [6] of the same compound?
Answer: The MIC was 0.5 to 1 µg/mL.

Question: And the MIC [7]?
Answer: Its MIC is 2 µg/mL.

Question: And the MIC [8]?
Answer: The MIC was 1 µg/mL.

Question: What about the MIC [9] of the same compound?
Answer: The MIC was 2 µg/mL.

Question: And the “MIC alone Bolalipid” value [10]?
Answer: Its value is 8 µg/mL.

Question: And the MIC [11]?
Answer: Its MIC is 0.5 µg/mL.

Question: And the “Toxicity (EC50)” value [12]?
Answer: Its value is 7.0 ± 0.5 µg/mL.

Question: What about the “Toxicity (EC50)” value [13] of the same compound?
Answer: The value was 10.7 ± 0.3 µg/mL.

Question: What about the MIC [14] of the same compound?
Answer: The MIC was 4 µg/mL.

Question: And the “MIC alone Bolalipid” value [15]?
Answer: The value was 32 µg/mL.

Question: And the MIC [16]?
Answer: Its MIC is 0.25 µg/mL.

Question: What about the “MIC alone Bolalipid” value ([17]; Octa-C10/enrofloxacin) of the same compound?
Answer: The value was 4 to 8 µg/mL.

Question: And the “MIC alone Bolalipid” value ([17]; Octa-C10/streptomycin)?
Answer: Its value is 4 to 8 µg/mL.

Question: And the MIC [18]?
Answer: Its MIC is 2 µg/mL.

Question: And the MIC [19]?
Answer: Its MIC is 4 µg/mL.

Question: What about the MIC [20] of the same compound?
Answer: Its MIC is 0.5 µg/mL.

Question: What about the “MIC alone Bolalipid” value ([21]; Octa-C10/enrofloxacin) of the same compound?
Answer: Its value is 4 to 8 µg/mL.

Question: What about the “MIC alone Bolalipid” value ([21]; Octa-C10/streptomycin) of the same compound?
Answer: Its value is 4 to 8 µg/mL.

Question: And the MIC [22]?
Answer: Its MIC is >32 µg/mL.

Question: And the “MIC alone Bolalipid” value ([23]; Octa-C10/enrofloxacin)?
Answer: Its value is 1 µg/mL.

Question: And the “MIC alone Bolalipid” value ([23]; Octa-C10/streptomycin)?
Answer: The value was 1 µg/mL.

Question: What about the protection ([24]; in vivo) of the same compound?
Answer: The protection was “none of them providing significant protection”.

Question: What about the infected larvae rescued ([24]; lowest dose, 0.1 mg/kg) of the same compound?
Answer: Its infected larvae rescued is “approximately a third”.

Question: What about the MIC [25] of the same compound?
Answer: The MIC was 2 µg/mL.

Question: And the “MIC alone Bolalipid” value ([26]; Octa-C10/enrofloxacin)?
Answer: The value was 4 to 8 µg/mL.

Question: And the “MIC alone Bolalipid” value ([26]; Octa-C10/streptomycin)?
Answer: Its value is 4 to 8 µg/mL.

Question: And the MIC [27]?
Answer: The MIC was 0.25 µg/mL.

Question: And the “MIC alone Bolalipid” value [28]?
Answer: Its value is 64 µg/mL.

Question: And the MIC [29]?
Answer: Its MIC is 16 µg/mL.

Question: What about the MIC [30] of the same compound?
Answer: Its MIC is 1 µg/mL.

Question: And the MIC [31]?
Answer: Its MIC is 32 µg/mL.

Question: What about the MIC [32] of the same compound?
Answer: Its MIC is 0.5 µg/mL.

Question: And the MIC [33]?
Answer: Its MIC is 0.25 µg/mL.

Question: And the MIC [34]?
Answer: The MIC was 16 µg/mL.

Question: What about the MIC [35] of the same compound?
Answer: Its MIC is 2 µg/mL.

Question: And the larvae rescued ([36]; 5 mg/kg topical)?
Answer: The larvae rescued was 48%.

Question: What about the larvae rescued ([36]; 10 mg/kg topical) of the same compound?
Answer: Its larvae rescued is 60%.

Question: What about the protection ([36]; lower doses (2.5 and 1.25 mg/kg)) of the same compound?
Answer: The protection was “ineffective”.

Source: article PMC9942557, “Bolaamphiphile Analogues of 12-bis-THA Cl2 Are Potent Antimicrobial Therapeutics with Distinct Mechanisms of Action against Bacterial, Mycobacterial, and Fungal Pathogens” (mSphere, 2022)
